Test results as given in patent US20240115534A1, “COMPOSITION FOR MUSCLE ENHANCEMENT AND USE OF SAME” (J-OIL MILLS, INC., priority 2021, published 2024).

Test system: mouse myoblast strain C2C12 (myotube cells)
Assay: Myotube area and maximum transverse diameter of C2C12 myotube cells (anti-MHC immunostaining, imaging analysis)
Format: cell-based
Conditions: for Maximum transverse diameter/myotube cell (%) Average value / Myotube area/field of view (%) Average value: two days, untreated control = 100%
Method: Cells of mouse myoblast strain C2C12 (ATCC catalog no. CRL-1772)
Proliferation culture medium: DMEM (high glucose) to which 10% FBS and 1% PS are added
Differentiation culture medium: DMEM (high glucose) to which 2% HS and 1% PS are added
The fatty acids indicated below were added to the culture medium so as to reach a concentration of 0.05 mM, 0.2 mM, or 0.5 mM. As a positive control, insulin-like growth factor (IGF-1) (made by Sigma-Aldrich Co., LLC), which is a factor for promoting formation of myotube cells, was added to the culture medium so as to reach a concentration of 10 ng/mL.
The fatty acids were dissolved in dimethyl sulfoxide (DMSO) (made by Nacalai Tesque Inc.) to formulate solutions having a concentration of 0.05 M, 0.2 M, 0.5 M, or 1 M, and the solutions were added in 1/1000 amounts to the culture medium to reach a target final concentration of 0.05 mM, 0.2 mM, 0.5 mM, or 1 mM. The IGF-1 serving as a positive control was formulated to a concentration of 10 μg/mL using 0.1 N HCl, and the resultant solution was added in a 1/1000 amount to the culture medium to reach a target final concentration of 10 ng/mL.
The C2C12 cells were recovered in a T75 flask using the proliferation culture medium and cultured using a CO2 incubator (37° C., 5% CO2, moist; same applies below). The culture medium was replaced at intervals of one to two days. The cells were peeled away (3 to 5 minutes) using 0.25% trypsin-EDTA (made by Nacalai Tesque Inc.) (1 mL) at the point in time when 80% confluence was reached, and 5 mL of culture medium was added, after which the components were centrifuged (180×g, 5 minutes, room temperature). A supernatant was removed, and cell pellets were suspended in fresh culture medium and sown in a 96-well black plate at a rate of 10,000 cells/0.1 mL/well. The next day, the culture medium was replaced with the differentiation culture medium, and culturing was carried out for two days to induce differentiation into myotube cells. The culture medium was then replaced with differentiation culture medium (100 μL) to which the substance under test was added, and culturing was carried out for a further two days.
After treatment with the substance under test, the wells were refilled with 100 μL of a fixing solution (4% PFA: paraformaldehyde (made by Nacalai Tesque Inc.)), incubated for 15 minutes at 4° C., and then washed three times using Dulbecco's Phosphate-Buffered Saline (DPBS) (made by Thermo Fisher Scientific Inc.). 100 μL of a blocking/membrane permeation liquid solution (0.3% TritonX/3% BSA/DPBS) was added, and the components were incubated for 30 minutes at room temperature. The aforementioned solution replaced with a primary antibody solution (primary antibody reagent (diluted by a factor of 300)/3% BSA/DPBS) and then incubated overnight at 4° C. The primary antibody solution was removed, and the wells were washed three times using a blocking solution (3% BSA/DPBS) before being refilled with a secondary antibody solution (secondary antibody reagent (diluted by a factor of 500)/0.1% nucleus-staining reagent/3% BSA/DPBS) and incubated for two hours at room temperature. Finally, the wells were washed three times using DPBS and refilled with new DPBS before imaging analysis was carried out.
An automatic cell image system (“Operetta CLS,” made by PerkinElmer Inc.) was used in the imaging analysis of the immunostained cells. Nine fields of view of central sections of the wells were imaged using a 10× objective lens, and then fluorescent regions marked by the anti-MHC antibodies and cell nucleus regions marked by the nucleus-staining reagent were detected using image analysis software (Harmony 4.6) included with the system. […]

[1] = Table 3 data, 0.5 mM, vs comparative example 3-1
[2] = Table 1 data, 0.5 mM, vs comparative example 1-1, Dunnett's test, 5%
[3] = Table 2 data, 0.2 mM, vs comparative example 2-1
[4] = Table 2 data, 0.5 mM, vs comparative example 2-1

CCCCCCCCCCCCCC(=O)O [Tetradecanoic acid (C14:0), Tetradecanoic acid]
Maximum transverse diameter/myotube cell (%) Average value (Table 3, 0.5 mM): 108.6% | Myotube area/field of view (%) Average value (Table 3, 0.5 mM): 114.7% | Maximum transverse diameter/myotube cell (%) Average value (Table 3, 1 mM): 124.4% | Myotube area/field of view (%) Average value (Table 3, 1 mM): 107.3% | area of the myotube cells within the fields of view, change versus control (in words) [1]: significantly increased | per-cell maximum transverse diameter of the myotube cells, change versus control (in words) [1]: significantly increased | per-cell maximum transverse diameter of the myotube cells, change versus control (in words) (Table 3 data, 1.0 mM, vs comparative example 3-1): significantly increased

CCCCCCCCCCCCCCC(=O)O [Pentadecanoic acid (C15:0), Pentadecanoic acid]
Maximum transverse diameter/myotube cell (%) Average value (Table 1, 0.5 mM, n=5): 132.2% | Myotube area/field of view (%) Average value (Table 1, 0.5 mM, n=5): 116.0% | area of the myotube cells within the fields of view, change versus control (in words) [2]: significantly increased | per-cell maximum transverse diameter of the myotube cells, change versus control (in words) [2]: significantly increased | Maximum transverse diameter/myotube cell (%) Average value (Table 2, 0.05 mM): 103.0% | Myotube area/field of view (%) Average value (Table 2, 0.05 mM): 108.0% | Maximum transverse diameter/myotube cell (%) Average value (Table 2, 0.2 mM): 109.3% | Myotube area/field of view (%) Average value (Table 2, 0.2 mM): 119.3% | Maximum transverse diameter/myotube cell (%) Average value (Table 2, 0.5 mM): 111.4% | Myotube area/field of view (%) Average value (Table 2, 0.5 mM): 118.7% | per-cell maximum transverse diameter of the myotube cells, change versus control (in words) (Table 2 data, 0.05 mM, vs comparative example 2-1): significantly increased | area of the myotube cells within the fields of view, change versus control (in words) [3]: significantly increased | per-cell maximum transverse diameter of the myotube cells, change versus control (in words) [3]: significantly increased | area of the myotube cells within the fields of view, change versus control (in words) [4]: significantly increased | per-cell maximum transverse diameter of the myotube cells, change versus control (in words) [4]: significantly increased

IGF-1: insulin-like growth factor (IGF-1), a factor for promoting formation of myotube cells; positive control at 10 ng/mL
Maximum transverse diameter/myotube cell (%) Average value (Table 1, 10 ng/mL): 101.8% | Myotube area/field of view (%) Average value (Table 1, 10 ng/mL): 114.1% | Maximum transverse diameter/myotube cell (%) Average value (Table 2, 10 ng/mL): 99.1% | Myotube area/field of view (%) Average value (Table 2, 10 ng/mL): 126.8% | Maximum transverse diameter/myotube cell (%) Average value (Table 3, 10 ng/mL): 100.4% | Myotube area/field of view (%) Average value (Table 3, 10 ng/mL): 120.5% | Maximum transverse diameter/myotube cell (%) Average value (Table 4, 10 ng/mL): 104.8% | Myotube area/field of view (%) Average value (Table 4, 10 ng/mL): 132.8%

CCCCCCCCCCCCCCCC(=O)O [Hexadecanoic acid (C16:0), Hexadecanoic acid, reference compound]
Maximum transverse diameter/myotube cell (%) Average value (Table 4, 0.05 mM): 98.7% | Myotube area/field of view (%) Average value (Table 4, 0.05 mM): 91.4% | Maximum transverse diameter/myotube cell (%) Average value (Table 4, 0.5 mM): 104.9% | Myotube area/field of view (%) Average value (Table 4, 0.5 mM): 80.9% | per-cell maximum transverse diameter of the myotube cells, effect (in words) (Table 4 data, 0.05 mM): no effect | per-cell maximum transverse diameter of the myotube cells, effect (in words) (Table 4 data, 0.5 mM): no effect | area of the myotube cells within the fields of view, change versus control (in words) (Table 4 data, 0.5 mM, vs comparative example 4-1): significantly decreased

CCCCCCCCCCCCCCCCC(=O)O [Heptadecanoic acid (C17:0), Heptadecanoic acid, reference compound]
Maximum transverse diameter/myotube cell (%) Average value (Table 1, 0.5 mM, n=5): 98.4% | Myotube area/field of view (%) Average value (Table 1, 0.5 mM, n=5): 82.8% | area of the myotube cells within the fields of view, change versus control (in words) [2]: significantly decreased

CCCCCCCCCCC(=O)O [Undecanoic acid (C11:0), Undecanoic acid, reference compound]
Maximum transverse diameter/myotube cell (%) Average value (Table 1, 0.5 mM, n=5): 103.1% | Myotube area/field of view (%) Average value (Table 1, 0.5 mM, n=5): 103.4% | effect on the myotube cells (in words) (Table 1 data, 0.5 mM): no effect

CCCCCCCCCCCCC(=O)O [Tridecanoic acid (C13:0), Tridecanoic acid]
Maximum transverse diameter/myotube cell (%) Average value (Table 1, 0.5 mM, n=5): 124.1% | Myotube area/field of view (%) Average value (Table 1, 0.5 mM, n=5): 98.1% | per-cell maximum transverse diameter of the myotube cells, change versus control (in words) [2]: significantly increased
